US9738634B2, “Heterocyclic amide compound and herbicide” (SYNGENTA PARTICIPATIONS AG, priority 2013, dated 2017)

Tests used:
Type in all cases: in vivo
beet = test: Test Example 3: soil treatment, effect on crop; f: beet; details: soil treatment, treatment dosage 320 g/ha
Method in brief: (§1)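 Crop and weed responses were judged three weeks after a uniform surface spray of the water-diluted emulsion at the given g/ha rate. Seeds sat beneath about 1.5 cm of sterilized diluvial soil, and boxes stood in a greenhouse at 25 to 30° C.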

birds-eye speedwell = test: Test Example 3: weedkilling efficacy through soil treatment; p: birds-eye speedwell; details: soil treatment, treatment dosage 320 g/ha
Method in brief: as §1

barnyard grass [1] = test: Test Example 1: weedkilling efficacy, preemergent weed treatment in the submerged state; A: barnyard grass; details: treatment dosage 320 g/ha
Method in brief: (§2)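 Pre-emergence paddy test: weed seeds sown in submerged alluvial soil (4 cm water), 2.5-leaf rice transplanted, water-diluted emulsion applied to water surface at sowing at stated g/ha. Scored at 3 weeks, greenhouse 25–30 °C.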

directly sown rice = test: Test Example 3: soil treatment, effect on crop; b: directly sown rice; details: soil treatment, treatment dosage 320 g/ha
Method in brief: as §1

wheat = test: Test Example 3: soil treatment, effect on crop; e: wheat; details: soil treatment, treatment dosage 320 g/ha
Method in brief: as §1

common wind-grass = test: Test Example 3: weedkilling efficacy through soil treatment; J: common wind-grass; details: soil treatment, treatment dosage 320 g/ha
Method in brief: as §1

wild oat = test: Test Example 3: weedkilling efficacy through soil treatment; G: wild oat; details: soil treatment, treatment dosage 320 g/ha
Method in brief: as §1

rapeseed = test: Test Example 3: soil treatment, effect on crop; g: rapeseed; details: soil treatment, treatment dosage 320 g/ha
Method in brief: as §1

bulrush [2] = test: Test Example 2: weedkilling efficacy, growth period weed treatment in the submerged state; B: bulrush; details: treatment dosage 320 g/ha
Method in brief: (§3)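 Seedlings at 1-2 leaves in 4 cm-deep submerged alluvial soil received emulsion formulations on the water surface, dosed per hectare; effects were judged 3 weeks on.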

redroot pigweed = test: Test Example 3: weedkilling efficacy through soil treatment; L: redroot pigweed; details: soil treatment, treatment dosage 320 g/ha
Method in brief: as §1

chickweed = test: Test Example 3: weedkilling efficacy through soil treatment; N: chickweed; details: soil treatment, treatment dosage 320 g/ha
Method in brief: as §1

black-grass = test: Test Example 3: weedkilling efficacy through soil treatment; H: black-grass; details: soil treatment, treatment dosage 320 g/ha
Method in brief: as §1

fig-leafed goosefoot = test: Test Example 3: weedkilling efficacy through soil treatment; M: fig-leafed goosefoot; details: soil treatment, treatment dosage 320 g/ha
Method in brief: as §1

corn = test: Test Example 3: soil treatment, effect on crop; c: corn; details: soil treatment, treatment dosage 320 g/ha
Method in brief: as §1

crabgrass = test: Test Example 3: weedkilling efficacy through soil treatment; D: crabgrass; details: soil treatment, treatment dosage 320 g/ha
Method in brief: as §1

transplanted rice = test: Test Example 1: preemergent weed treatment in the submerged state, effect on crop; a: transplanted rice; details: treatment dosage 320 g/ha
Method in brief: as §2

Indian mallow = test: Test Example 3: weedkilling efficacy through soil treatment; K: Indian mallow; details: soil treatment, treatment dosage 320 g/ha
Method in brief: as §1

Italian ryegrass = test: Test Example 3: weedkilling efficacy through soil treatment; I: Italian ryegrass; details: soil treatment, treatment dosage 320 g/ha
Method in brief: as §1

barnyard grass [3] = test: Test Example 2: weedkilling efficacy, growth period weed treatment in the submerged state; A: barnyard grass; details: treatment dosage 320 g/ha
Method in brief: as §3

soybean = test: Test Example 3: soil treatment, effect on crop; d: soybean; details: soil treatment, treatment dosage 320 g/ha
Method in brief: as §1

bulrush [4] = test: Test Example 1: weedkilling efficacy, preemergent weed treatment in the submerged state; B: bulrush; details: treatment dosage 320 g/ha
Method in brief: as §2

oval-leafed pondweed [5] = test: Test Example 2: weedkilling efficacy, growth period weed treatment in the submerged state; C: oval-leafed pondweed; details: treatment dosage 320 g/ha
Method in brief: as §3

green foxtail = test: Test Example 3: weedkilling efficacy through soil treatment; E: green foxtail; details: soil treatment, treatment dosage 320 g/ha
Method in brief: as §1

oval-leafed pondweed [6] = test: Test Example 1: weedkilling efficacy, preemergent weed treatment in the submerged state; C: oval-leafed pondweed; details: treatment dosage 320 g/ha
Method in brief: as §2

barnyard grass [7] = test: Test Example 3: weedkilling efficacy through soil treatment; F: barnyard grass; details: soil treatment, treatment dosage 320 g/ha
Source text: Weedkilling Efficacy Test Through Soil Treatment
Sterilized diluvial soil was introduced into 21 cm long, 13 cm wide, 7 cm deep plastic boxes, and seeds of crabgrass, green foxtail, barnyard grass, wild oat, black-grass, Italian ryegrass, common wind-grass, Indian mallow, redroot pigweed, fig-leafed goosefoot, chickweed, catchweed, birds-eye speedwell, corn, soybean, rice, wheat, beet and rapeseed were each spot-sown, and covered with about 1.5 cm of soil. Next, emulsions of compounds of the present invention prepared according to compounding example 2 were diluted with water to give the specified dosages, and applied uniformly onto the soil surface with a small sprayer. The plants were grown by placing the plastic boxes in a greenhouse at 25 to 30° C., and 3 weeks after the pesticide treatment the effect on each type of plant was investigated on the basis of the assessment criteria of test example 1.
A: barnyard grass, B: bulrush, C: oval-leafed pondweed, D: crabgrass, E: green foxtail, F: barnyard grass, G: wild oat, H: black-grass, I: Italian ryegrass, J: common wind-grass, K: Indian mallow, L: redroot pigweed, M: fig-leafed goosefoot, N: chickweed, O: catchweed, p: birds-eye speedwell, a: transplanted rice, b: directly sown rice, c: corn, d: soybean, e: wheat, f: beet, g: rapeseed
Further, pesticide dosage (g/ha) indicates the concentration regulated such that treatment was with only the stated number of grams (g), when calculated per hectare (ha).

Compound | f: beet, effect on crop grade (beet) | P: birds-eye speedwell, weedkilling efficacy grade (birds-eye speedwell) | A: barnyard grass, weed kill grade (barnyard grass [1]) | b: directly sown rice, effect on crop grade (directly sown rice) | e: wheat, effect on crop grade (wheat) | J: common wind-grass, weedkilling efficacy grade (common wind-grass) | G: wild oat, weedkilling efficacy grade (wild oat) | g: rapeseed, effect on crop grade (rapeseed) | B (bulrush) weedkilling efficacy grade (bulrush [2]) | L: redroot pigweed, weedkilling efficacy grade (redroot pigweed) | N: chickweed, weedkilling efficacy grade (chickweed) | H: black-grass, weedkilling efficacy grade (black-grass) | M: fig-leafed goosefoot, weedkilling efficacy grade (fig-leafed goosefoot) | c: corn, effect on crop grade (corn) | D: crabgrass, weedkilling efficacy grade (crabgrass) | a: transplanted rice, effect on crop grade (transplanted rice) | K: Indian mallow, weedkilling efficacy grade (Indian mallow) | I: Italian ryegrass, weedkilling efficacy grade (Italian ryegrass) | A (barnyard grass) weedkilling efficacy grade (barnyard grass [3]) | d: soybean, effect on crop grade (soybean) | further results
CC(C)(C(=O)Nc1cc(I)ccn1)N1COCN(c2ccccc2)C1=O [A-2-10] | 3 (weed kill ratio 40% or more, less than 70%) | 4 (weed kill ratio 70% or more, less than 90%) | 5 (weed kill ratio 90% or more, (practically complete withering)) | 4 (weed kill ratio 70% or more, less than 90%) | 0 (weed kill ratio 5% or less (practically no effect)) | 5 (weed kill ratio 90% or more, (practically complete withering)) | 2 (weed kill ratio 20% or more, less than 40%) | 3 (weed kill ratio 40% or more, less than 70%) | 5 (weed kill ratio 90% or more, (practically complete withering)) | 1 (weed kill ratio 5% or more, less than 20%) | 3 (weed kill ratio 40% or more, less than 70%) | 5 (weed kill ratio 90% or more, (practically complete withering)) | 4 (weed kill ratio 70% or more, less than 90%) | 0 (weed kill ratio 5% or less (practically no effect)) | 5 (weed kill ratio 90% or more, (practically complete withering)) | 1 (weed kill ratio 5% or more, less than 20%) | 0 (weed kill ratio 5% or less (practically no effect)) | 5 (weed kill ratio 90% or more, (practically complete withering)) | 5 (weed kill ratio 90% or more, (practically complete withering)) | 0 (weed kill ratio 5% or less (practically no effect)) | B: bulrush, weed kill grade (bulrush [4]): 5 (weed kill ratio 90% or more, (practically complete withering)); C (oval-leafed pondweed) weedkilling efficacy grade (oval-leafed pondweed [5]): 5 (weed kill ratio 90% or more, (practically complete withering)); E: green foxtail, weedkilling efficacy grade (green foxtail): 5 (weed kill ratio 90% or more, (practically complete withering)); C: oval-leafed pondweed, weed kill grade (oval-leafed pondweed [6]): 5 (weed kill ratio 90% or more, (practically complete withering)); F: barnyard grass, weedkilling efficacy grade (barnyard grass [7]): 5 (weed kill ratio 90% or more, (practically complete withering))
CC(C)(C(=O)Nc1cc(C(F)(F)F)cc(F)n1)N1COCN(c2ccccc2)C1=O [A-2-22] | 4 (weed kill ratio 70% or more, less than 90%) | 5 (weed kill ratio 90% or more, (practically complete withering)) | 5 (weed kill ratio 90% or more, (practically complete withering)) | 5 (weed kill ratio 90% or more, (practically complete withering)) | 0 (weed kill ratio 5% or less (practically no effect)) | 5 (weed kill ratio 90% or more, (practically complete withering)) | 5 (weed kill ratio 90% or more, (practically complete withering)) | 4 (weed kill ratio 70% or more, less than 90%) | 5 (weed kill ratio 90% or more, (practically complete withering)) | 4 (weed kill ratio 70% or more, less than 90%) | 4 (weed kill ratio 70% or more, less than 90%) | 5 (weed kill ratio 90% or more, (practically complete withering)) | 4 (weed kill ratio 70% or more, less than 90%) | 0 (weed kill ratio 5% or less (practically no effect)) | 5 (weed kill ratio 90% or more, (practically complete withering)) | 5 (weed kill ratio 90% or more, (practically complete withering)) | 4 (weed kill ratio 70% or more, less than 90%) | 5 (weed kill ratio 90% or more, (practically complete withering)) | 5 (weed kill ratio 90% or more, (practically complete withering)) | 4 (weed kill ratio 70% or more, less than 90%) | B: bulrush, weed kill grade (bulrush [4]): 5 (weed kill ratio 90% or more, (practically complete withering)); C (oval-leafed pondweed) weedkilling efficacy grade (oval-leafed pondweed [5]): 5 (weed kill ratio 90% or more, (practically complete withering)); E: green foxtail, weedkilling efficacy grade (green foxtail): 5 (weed kill ratio 90% or more, (practically complete withering)); C: oval-leafed pondweed, weed kill grade (oval-leafed pondweed [6]): 5 (weed kill ratio 90% or more, (practically complete withering)); F: barnyard grass, weedkilling efficacy grade (barnyard grass [7]): 5 (weed kill ratio 90% or more, (practically complete withering))
Cc1cc(Cl)cc(NC(=O)C(C)(C)N2COCN(c3ccccc3)C2=O)n1 [A-2-25] | 4 (weed kill ratio 70% or more, less than 90%) | 5 (weed kill ratio 90% or more, (practically complete withering)) | 5 (weed kill ratio 90% or more, (practically complete withering)) | 5 (weed kill ratio 90% or more, (practically complete withering)) | 0 (weed kill ratio 5% or less (practically no effect)) | 5 (weed kill ratio 90% or more, (practically complete withering)) | 4 (weed kill ratio 70% or more, less than 90%) | 3 (weed kill ratio 40% or more, less than 70%) | 5 (weed kill ratio 90% or more, (practically complete withering)) | 4 (weed kill ratio 70% or more, less than 90%) | 4 (weed kill ratio 70% or more, less than 90%) | 5 (weed kill ratio 90% or more, (practically complete withering)) | 4 (weed kill ratio 70% or more, less than 90%) | 0 (weed kill ratio 5% or less (practically no effect)) | 5 (weed kill ratio 90% or more, (practically complete withering)) | 3 (weed kill ratio 40% or more, less than 70%) | 5 (weed kill ratio 90% or more, (practically complete withering)) | 5 (weed kill ratio 90% or more, (practically complete withering)) | 5 (weed kill ratio 90% or more, (practically complete withering)) | 0 (weed kill ratio 5% or less (practically no effect)) | B: bulrush, weed kill grade (bulrush [4]): 5 (weed kill ratio 90% or more, (practically complete withering)); C (oval-leafed pondweed) weedkilling efficacy grade (oval-leafed pondweed [5]): 5 (weed kill ratio 90% or more, (practically complete withering)); E: green foxtail, weedkilling efficacy grade (green foxtail): 5 (weed kill ratio 90% or more, (practically complete withering)); C: oval-leafed pondweed, weed kill grade (oval-leafed pondweed [6]): 5 (weed kill ratio 90% or more, (practically complete withering)); F: barnyard grass, weedkilling efficacy grade (barnyard grass [7]): 5 (weed kill ratio 90% or more, (practically complete withering))
